Where “and” joins values, the source holds several entries; their conditions need not be identical. Identical values can stand only once.

What all share (assay type): in vivo, mouse
Series [1] deals with acute itch caused by chloroquine. Put plainly: Acute itch model: scratching of mice after subcutaneous chloroquine, BLA given intragastrically 2 h before. The conditions noted are these: for Number of scratching in mouse in the chloroquine group (single animals): between 2 and 2.5 hours after BLA (30 min), individual mouse; for Number of scratching in mouse in the chloroquine group, average number: 30 min, solvent group 92.565556. The text has this: (§1) Researches over the years have shown that itch is mainly transmitted by two types of C fibers, with one sensitive to histamine and the other to chloroquine. Therefore, the scratching response of animals caused by subcutaneous injection of histamine or chloroquine is internationally recognized as an acute itch model. The present disclosure is aimed to investigate whether the intragastric administration of bulleyaconitine A (BLA) can inhibit acute itch caused by histamine or chloroquine.
(§2) 6-8 weeks old C57 mice were employed in experiments (body weight of 17-20 grams, from the Experimental Animal Center of Sun Yat-Sen University). The mice were randomly divided into four groups, namely solvent+histamine control group, BLA+histamine group, solvent+chloroquine control group and BLA+chloroquine group. For the convenience of subcutaneous injection and observation of scratching, the hair around the neck and back (at least 3×5 cm) was shaved off under temporary anesthesia with isoflurane three days before the start of the experiments. The control group was given a subcutaneous injection of 50 μl of histamine (2 mg/ml) or chloroquine (4 mg/ml), with an intragastric administration of a solvent (carboxymethyl cellulose) 2 hours before the injection. The experiment group was given an intragastric administration of BLA with different dosages (0.125, 0.25 and 0.5 mg/kg), 2 hours before the injection of histamine or chloroquine. The BLA was administered 2 hours in advance, because it needs 1.5-2 hours for BLA to take effect from its intragastric administration. The number of scratching in each group was counted within 30 minutes for comparison, because the acute scratching response induced by histamine or chloroquine subsided 30 minutes later after drug injection as shown by previous studies.
(§3) During the recording in experiment, the mice were placed in separate, transparent acrylic boxes having a size of 15×15×20 cm each, and with two small openings at top of each box to allow air to circulate. The scratching behavior was recorded as video by a camera, which was placed above mouse because their behaviors of scratching their back or neck mostly happen in an angle of view directly opposite to their upper back.
(§4) In order to minimize attentional shift and eliminate tension as much as possible, each transparent box was supplied with a small amount of padding, to absorb any urine excreted from the mouse. The ambient temperature was kept at 23-27° C., and additionally all the staff were asked to leave during the recording to keep the experimental environment quiet. The experiment was carried out between 9:00-14:00 h. To acclimatize the animals to the test environment, the mouse had been acclimatized in the transparent box for one hour at 9:00 and 13:00 every day since two days before the formal experiment. Because the scratching of a mice often happens quickly, the action from mice starting to scratch its neck or back by its hind paw until the hind paw hitting on the ground or being put into its mouth to clean the dander is taken as one scratching behavior.
(§5) Statistical methods: the number of scratching was represented by average value±standard deviation, and Turkey test was employed to compare the difference between different groups.
(§6) Solution preparation and application method: 0.05 g of BLA was weighed and dissolved in 1000 ml of 0.5% sodium carboxymethyl cellulose solution. Histamine and chloroquine were prepared with 0.9% sterile saline, to make a dosage of histamine 100 μg and chloroquine 200 μg. To minimize the skin injure at the injection site, a thinner needle in 0.3 ml for insulin was connected to the needle port of the microinjector to reduce injure to mouse.

Series [2] has as its system acute itch caused by histamine. Put plainly: Acute itch model: scratching of mice after subcutaneous histamine, BLA given intragastrically 2 h before. The following applies: for Number of scratching in mouse in the histamine group (single animals): between 2 and 2.5 hours after BLA (30 min), individual mouse; for Number of scratching in mouse in the histamine group, average number: 30 min, solvent group 36.56667.
Description: as §1, §2, §3, §4, §5, §6

Series [3] is described as follows: Observation of drowsiness or other side effects in mice of the itch experiments.
Description: as §2
BLA inhibited the itch caused by histamine or chloroquine in a manner of depending on the dosage of intragastric administration.

Where [4] appears, read: 0.5 mg/kg intragastric, P<0.001 vs solvent group.
The mark [5] stands for this setting: oral administration, 0.125-0.5 mg/kg.

On to `CCN1C[C@]2(COC)CC[C@H](OC)[C@]34C1[C@H]([C@H](OC)[C@H]23)[C@@]1(OC(C)=O)C[C@H](OC)[C@]2(O)C[C@@H]4[C@@H]1[C@H]2OC(=O)c1ccc(OC)cc1` [BLA, Bulleyaconitine A], for which the “Number of scratching in mouse in the chloroquine group (single animals)” value in series [1] (0.125 mg/kg BLA intragastric + chloroquine s.c.) was 29 and 70 and 90 and 31 and 115 and 185 and 89 and 40 and 130 and 23 and 197 and 24 (2×) and 53 and 10 and 182 and 27 and 26 and 138 and 48 and 41 and 62 and 34 and 93 and 45; in series [1] (0.25 mg/kg BLA intragastric + chloroquine s.c.), 43 and 75 (2×) and 136 and 0 (3×) and 33 and 101 and 25 (2×) and 38 and 26 and 30 and 78 (3×) and 34 and 37 and 10 and 64 and 118 and 53 and 17 and 23 and 143 and 80 and 47; in series [1] (0.5 mg/kg BLA intragastric + chloroquine s.c.), 0 (13×) and 27 and 20 and 23. The “Number of scratching in mouse in the chloroquine group, average number” value in series [1] (0.125 mg/kg BLA intragastric + chloroquine, n=25) is 72.24; in series [1] (0.25 mg/kg BLA intragastric + chloroquine, n=28), 52.39; in series [1] (0.5 mg/kg BLA intragastric + chloroquine, n=16), 4.3875. Moreover, the “Inhibition of acute itch caused by chloroquine (in words)” value in series [1] (0.125 mg/kg intragastric, P>0.05, not statistically significant) is reported as “only had slightly inhibitory effect”; in series [1] (setting [4]) it was “completely inhibited”. For the same compound, the “Inhibition of scratching response caused by chloroquine (in words)” value in series [1] (0.25 mg/kg intragastric, P<0.01 vs solvent group) is listed as “significantly inhibited”. For the same compound, in series [1] (setting [5]), the “Dose dependence of inhibition of itching caused by chloroquine” value is listed as “in a dosage-dependent manner”. Further, the “Number of scratching in mouse in the histamine group (single animals)” value is 22 and 33 and 0 and 18 (2×) and 47 and 43 (3×) and 77 and 60 and 46 (2×) and 42 and 16 and 21 and 87 and 26 and 17 and 38 (3×) and 37 and 3 and 84 and 35 and 64 and 52 and 6 and 25 in series [2] (0.125 mg/kg BLA intragastric + histamine s.c.); 0 (12×) and 50 and 38 and 48 and 26 in series [2] (0.5 mg/kg BLA intragastric + histamine s.c.). Moreover, the “Number of scratching in mouse in the histamine group, average number” value is 37.5 in series [2] (0.125 mg/kg BLA intragastric + histamine, n=30); 24.76 in series [2] (0.25 mg/kg BLA intragastric + histamine, n=38); 10.1325 in series [2] (0.5 mg/kg BLA intragastric + histamine, n=16). Besides, the “Inhibition of itching caused by histamine (in words)” value in series [2] (0.125 mg/kg intragastric) is given as “did not inhibit”. For the same compound, the “Inhibition of scratching response caused by histamine (in words)” value in series [2] (0.25 mg/kg intragastric, P<0.05 vs solvent group) is listed as “significantly inhibited”. In addition, the “Inhibition of acute itch caused by histamine (in words)” value in series [2] (setting [4]) is reported as “completely inhibited”. Also, the “Dose dependence of inhibition of itching caused by histamine” value in series [2] (setting [5]) is “in a dosage-dependent manner”. Moreover, the “Drowsiness or other side effects in mouse” value in series [3] (0.125 mg/kg intragastric) and in series [3] (0.25 mg/kg intragastric) was “no drowsiness or other side effects in mouse was observed” in each case. Also, in series [3] (0.5 mg/kg intragastric), the Drowsiness in mouse result is “drowsiness in mouse was observed”.

The values above are taken from patent publication US12042486B2, “Use of bulleyaconitine A” (YUNNAN HAOPY PHARMACEUTICALS LTD, priority 2018, dated 2024).
